Like-named read-outs stand apart in the source and are kept apart here.
Assays:
human aromatase = target: T1, human aromatase (Homo sapiens, UniProt P11511); assay: Aromatase inhibition, in vitro radiosubstrate incubation (testosterone to E2 conversion), human placental microsomes; format: biochemical; settings: for remaining activity at 10 µM: 10 µM test compound, non-inhibited control 100%, mean ± SD, n = 3, read-out: Arom Rel.conv. ± SD
T1 construct: from tissue; host or cells: human term placenta, microsomal fraction
T1 sequence (P11511 1-503): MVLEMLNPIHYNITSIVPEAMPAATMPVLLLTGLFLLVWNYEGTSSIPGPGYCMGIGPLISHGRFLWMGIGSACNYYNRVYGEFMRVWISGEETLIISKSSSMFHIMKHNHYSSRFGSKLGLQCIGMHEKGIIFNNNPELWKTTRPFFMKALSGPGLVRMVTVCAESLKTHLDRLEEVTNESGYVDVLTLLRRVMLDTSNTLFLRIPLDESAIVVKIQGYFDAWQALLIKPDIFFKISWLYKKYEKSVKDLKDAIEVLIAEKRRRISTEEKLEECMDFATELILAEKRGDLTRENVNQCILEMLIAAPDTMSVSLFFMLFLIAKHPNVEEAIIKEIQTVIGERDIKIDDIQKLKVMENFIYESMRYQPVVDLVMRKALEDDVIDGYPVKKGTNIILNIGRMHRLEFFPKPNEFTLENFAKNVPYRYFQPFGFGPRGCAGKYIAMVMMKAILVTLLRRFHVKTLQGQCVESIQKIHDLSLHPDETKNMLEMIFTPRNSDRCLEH
Protocol: (§1) Enzyme inhibition studies were performed by in vitro radiosubstrate incubations using human term placenta cytosol and microsomas as enzyme sources. […] Relative conversions compared to non-inhibited controls (100%) were measured in the presence of 10 µM concentration of the test compound. […] Mechanistic and kinetic investigations were performed and inhibitory constants (Ki) were determined for selected compounds.
(§2) Enzymatic incubations were carried out in the HEPES buffer medium at a final volume of 200
(§3) µl. The substrate was added to the incubate in 20 µl of a 25 v/v% propylene glycol in HEPES buffer solution, whereas test compounds were applied in 10 µl of dimethyl sulfoxide solution.
Incubations were performed at 37 °C and terminated by cooling and the addition of organic solvents of the subsequent extraction procedure. Control samples with no inhibitor and blank samples were incubated simultaneously. The radioactivity of the products formed was measured by means of liquid scintillation counting (LSC) and taken as indicator of the […]
In the aromatase assays the microsoma suspension was incubated with appropriate concentration of unlabelled testosterone (2) substrate spiked with [1,2,6,7-3H]testosterone tracer, and in the presence of 0.1 mM NADPH cofactor excess. (In this case, solution of the substrate was prepared with acetonitrile instead of propylene glycol.) Incubation time was 40 min. The incubation mixture was extracted with toluene, then the toluene phase was drained and washed with HEPES buffer. Aromatase products containing phenolic hydroxy group were extracted with 1.2 M sodium hydroxide solution from the toluene extract and the alkaline phase was measured in the LSC. […]
was extracted with toluene. […]
(§4) In the general procedure, incubations were performed as described. Concentrations of the substrates were 1.0 µM, and the test compounds were applied at 10 µM final concentration in the incubate. Relative conversions compared to non-inhibited controls (100%) were determined. The assays were performed in triplicate, and the mean value and the standard deviation (SD) were calculated. […]
(§5) these cases, conversions were measured at 10–15 different concentrations in the appropriate interval between 0.001–50 µM. IC50 results were calculated by using unweighted iterative least squares logistic curve fitting by means of the “absolute IC50 calculation“ function of the GraphPad Prism 4.0 software (GraphPad Software, Inc., San Diego, CA, USA).
Kinetic analyses were performed via measurement of the enzymatic transformation using different fixed substrate concentrations and varied inhibitor concentrations. The Dixon’s linear transformation (1/velocity vs. inhibitor concentration) was applied for evaluation and the inhibition constant (Ki) was determined from abscissa of intersection of the lines of different substrate concentrations. Mechanism of binding was identified according to the […]

steroid sulfatase (STS) [1] = target: T2, steroid sulfatase (STS) (Homo sapiens, UniProt P08842); assay: STS inhibition, in vitro radiosubstrate incubation (release of E1 from E1S), human placental microsomes; Dixon kinetic analysis; format: biochemical; settings: for IC50: E1S substrate 1.0 µM, read-out: STS IC50 ± SD; for STS inhibition mechanism: Dixon's plots; for Ki: from Dixon plot
T2 construct: from tissue; host or cells: human term placenta, microsomal fraction
T2 sequence (P08842 22-583): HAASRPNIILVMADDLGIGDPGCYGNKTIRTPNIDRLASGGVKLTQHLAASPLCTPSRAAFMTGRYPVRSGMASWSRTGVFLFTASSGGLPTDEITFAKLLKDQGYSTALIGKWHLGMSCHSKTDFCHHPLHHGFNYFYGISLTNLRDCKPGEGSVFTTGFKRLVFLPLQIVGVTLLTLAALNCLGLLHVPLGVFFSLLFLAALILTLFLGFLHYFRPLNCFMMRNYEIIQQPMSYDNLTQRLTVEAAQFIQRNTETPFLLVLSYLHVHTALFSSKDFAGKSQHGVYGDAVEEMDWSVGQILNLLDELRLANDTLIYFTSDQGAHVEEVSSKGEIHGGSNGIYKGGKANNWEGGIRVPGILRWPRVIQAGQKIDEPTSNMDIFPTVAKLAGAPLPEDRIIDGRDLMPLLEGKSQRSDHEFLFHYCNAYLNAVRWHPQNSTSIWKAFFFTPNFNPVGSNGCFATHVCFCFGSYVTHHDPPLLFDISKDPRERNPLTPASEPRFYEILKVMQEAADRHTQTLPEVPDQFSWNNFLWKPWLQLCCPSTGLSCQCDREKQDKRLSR
Protocol: as §1
Kinetic analyses of selected compounds 7a and 16c were performed by measurement of enzyme activities using different fixed substrate concentrations and varied inhibitor concentrations.
as §2, §3
(§6) Incubations were performed at 37 °C and terminated by cooling and the addition of organic solvents of the subsequent extraction procedure. Control samples with no inhibitor and blank samples were incubated simultaneously. […]
The incubation time was 2.5 min. […]
as §4, §5
(§7) Kinetic analyses were performed via measurement of the enzymatic transformation using different fixed substrate concentrations and varied inhibitor concentrations. The Dixon’s linear transformation (1/velocity vs. inhibitor concentration) was applied for evaluation and the inhibition constant (Ki) was determined from abscissa of intersection of the lines of different substrate concentrations. Mechanism of binding was identified according to the Dixon’s graphs and the secondary plot of slopes of the Dixon’s lines vs. 1/substrate […]
The inhibitor compounds were preincubated with the appropriate placenta fraction in a volume of 4.0 µl at 37 °C for various time periods (2.5-40 min). Following this procedure, […]

[2] = target: T3, 17β-hydroxysteroid dehydrogenase type 1 (17β-HSD1) (Homo sapiens, UniProt P14061); assay: 17β-HSD1 inhibition, in vitro radiosubstrate incubation (E1 to E2), human placental cytosol; Dixon kinetic analysis; format: biochemical; settings: for IC50: E1 substrate 1.0 µM, NADPH excess, read-out: 17β-HSD1 IC50 ± SD; for 17β-HSD1 inhibition mechanism: Dixon's plot; for 17β-HSD1 inhibition mechanism / Ki: cofactor excess; for Ki: from Dixon plot
T3 sequence (P14061 1-328): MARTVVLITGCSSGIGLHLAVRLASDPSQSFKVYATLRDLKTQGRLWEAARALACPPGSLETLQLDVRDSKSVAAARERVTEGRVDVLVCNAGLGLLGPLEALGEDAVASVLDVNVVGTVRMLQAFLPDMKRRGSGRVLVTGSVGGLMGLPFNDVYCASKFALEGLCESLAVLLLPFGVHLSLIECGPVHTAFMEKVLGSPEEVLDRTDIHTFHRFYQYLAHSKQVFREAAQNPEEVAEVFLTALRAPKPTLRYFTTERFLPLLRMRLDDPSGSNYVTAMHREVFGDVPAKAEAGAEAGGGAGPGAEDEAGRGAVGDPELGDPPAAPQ
Protocol: as §1
Inhibitors that bind to the steroid site of 17β-HSD1 can bind to both the free enzyme and the binary enzyme–cofactor complex by random kinetic mechanism.
as §2, §3, §6
The incubation time was 2.5 min. The product 17β-estradiol (E2, 5) was extracted with ethyl acetate and isolated by a TLC method (details are published in our earlier reference).
as §4, §5, §7
(§8) The inhibitor compounds were preincubated with the appropriate placenta fraction in a volume of 4.0 µl at 37 °C for various time periods (2.5-40 min). Following this procedure, samples were diluted with the incubation medium to 50-fold. Enzyme activity measurements

aromatase enzyme = target: aromatase enzyme; parameters: method as in PMID 16039845; settings: cited from earlier work
steroid sulfatase (STS) [3] = target: T2, steroid sulfatase (STS); assay: STS inhibition reversibility test (preincubation with placental microsomes, 50-fold dilution); format: biochemical; settings: preincubation 7a 1.5 μM, 16c 10 μM; for STS binding reversibility: 50-fold dilution, 20 min secondary incubation
17β-HSD1 = target: T4, 17β-HSD1 (Homo sapiens, UniProt P14061); assay: 17β-HSD1 inhibition reversibility test (preincubation with placental cytosol, 50-fold dilution); format: biochemical; settings: preincubation 10 μM, 2.5 and 20 min
T4 construct: from tissue; host or cells: human term placenta, cytosolic fraction
T4 sequence (P14061 1-328): T3 sequence (P14061 1-328)
Protocol: as §5, §7
as §8, with “measurements were started immediately for the 17β-HSD1 and after 20 min secondary incubation time to allow dissociation in the case of STS. […]” for “measurements”

[4] = target: T3, 17β-hydroxysteroid dehydrogenase type 1 (17β-HSD1); settings: earlier paper of the authors; read-out: 17β-HSD1 IC50 ± SD; cited from earlier work

| Compound | IC50 (human aromatase) [µM] | IC50 (steroid sulfatase (STS) [1]) [µM] | IC50 [2] [µM] | IC50 (aromatase enzyme) [µM] | Ki (aromatase enzyme) [µM] | enhancement in affinity to aromatase compared to E1 (aromatase enzyme) [fold] | remaining activity at 10 µM (human aromatase) [%] | STS inhibition mechanism (steroid sulfatase (STS) [1]) | Ki (steroid sulfatase (STS) [1]) [µM] | STS affinity higher compared to the E1S substrate (steroid sulfatase (STS) [1]; from IC50 values) [fold] | STS affinity increased compared to E1 (steroid sulfatase (STS) [1]; from IC50 values) [fold] | time in which irreversible binding to STS is nearly completed (steroid sulfatase (STS) [3]) [min] | STS binding reversibility (steroid sulfatase (STS) [3]) | 17β-HSD1 inhibition mechanism [2] | Ki [2] [µM] | 17β-HSD1 binding reversibility (17β-HSD1) | IC50 [4] [µM] | 17β-HSD1 Rel.conv. ± SD ([2]; 10 µM test compound, non-inhibited control 100%, mean ± SD, n = 3) [%] |
| --- | --- | --- | --- | --- | --- | --- | --- | --- | --- | --- | --- | --- | --- | --- | --- | --- | --- | --- |
| C[C@]12CC[C@@H]3c4cc(Br)c(O)cc4CC[C@H]3[C@@H]1CCC2=O [6b, 2-Bromoestrone] | 8.7 ± 2.8 | 2 ± 0.4 | 0.095 ± 0.031 | 2.4 | – | – | – | – | – | – | – | – | – | – | – | – | – | – |
| C[C@]12CC[C@@H]3c4cc(Cl)c(O)cc4CC[C@H]3[C@@H]1CCC2=O [6c, 2-Chloroestrone] | 6 ± 1.2 | 2.4 ± 0.4 | 0.18 ± 0.02 | – | 0.13 | ~20 | – | – | – | – | – | – | – | – | – | – | – | – |
| C[C@]12CC[C@@H]3c4ccc(O)c(I)c4CC[C@H]3[C@@H]1CCC2=O [7a, 4-iodoestrone] | – | 0.23 ± 0.09 | 0.36 ± 0.25 | – | – | – | 88 ± 2 | competitive | 0.36 | 22 | 100 | ≤ 2.5 | irreversible | – | – | – | – | – |
| C[C@@]12CC[C@@H]3c4ccc(O)c(I)c4CC[C@H]3[C@@H]1CCC2=O [11a] | – | 6 ± 1.6 | 0.38 | – | – | – | 90 ± 7 | – | – | – | – | – | – | competitive | 2.2 | reversible | 1 ± 0.3 | – |
| C[C@@]12CC[C@@H]3c4cc(I)c(O)c(I)c4CC[C@H]3[C@@H]1CCC2=O [12a] | – | 2.4 ± 0.5 | 1 | – | – | – | 91 ± 1 | – | – | – | – | – | – | competitive | 0.94 | reversible | 0.38 ± 0.08 | – |
| C[C@]12CCC[C@H]1[C@@H]1CCc3c(cc(Cl)c(O)c3Cl)[C@H]1CC2 [16c, 2,4-bis-chloro-17-deoxy-13α-estrone] | – | 1.3 ± 0.4 | – | – | – | – | 82 ± 12 | competitive | 1.9 | – | – | ≤ 2.5 | irreversible | – | – | – | – | 53 ± 2 |

From paper PMC6147116 (Journal of Enzyme Inhibition and Medicinal Chemistry, 2018)
